From patent publication US12565680B2, “Cancer neoantigens and their utilities in cancer vaccines and TCR-based cancer immunotherapy” (THE METHODIST HOSPITAL SYSTEM, priority 2018, dated 2026)

System: 135TIL
Assay: TCR β CDR3 repertoire analysis
Set-up: species or system human
Conditions: TCRβ CDR3 profiling
From the text: To address this issue, PCDHB16 neoantigen-specific CD4^+ T cells were isolated by FACS sorting of PCDHB16-neoantigen T cells from freshly generated bulk T cells after stimulated PCDHB16 neoepitope peptide-pulsed 135EBV-B cells. Using the similar approach, MPG-specific CD8+ T cells were also purified from freshly generated bulk T cells after stimulated MPG neoepitope peptide-pulsed 135EBV-B cells. Genomic DNAs were isolated from the two purified neoantigen-specific T cell populations, as well as the parental bulk T cells, and used as templates for TCR β-chain CDR3 repertoire amplification. […] After the amplicons (from PCDHB16-, MPG-specific T cells and bulk 135TIL) were subjected to deep-sequenced via next-generation sequencing (reads>100,000 per sample), followed by bioinformatic analysis and TCR repertoire alignment. […] The relative TCR sequence frequencies that were identical to those in PCDHB16-specific T cells and MPG-specific T cells were determined in total 135TIL cell population (FIG. 10F). […]
Cytokine Secretion Assay-Detection Kit (MACS Miltenyi Biotec) was used in cell-surface IFN-γ staining based on a commercial protocol. […] Finally cells were washed with cold buffer and ready for flow cytometric analysis. […]

Sequence: ENSPLGTEFPLNYALDLDVGSNNVQ [PCDHB16, immunodominant MHC-II neoantigen of patient #135]
- neoantigen-specific TCRs in the total 135TIL TCRs: 36%
